Converted amounts (≈) assume the structure as drawn.

Test [1] has as its system Pseudomonas aeruginosa TB-485. As to the kind of experiment: MIC, Pseudomonas aeruginosa TB-485*. It is filed as cell-based. The note with it: TB485; Pseudomonas aeruginosa TB-485, tobramycin resistant strain; read-out: minimum inhibitory concentration (MIC).
The subject of another test is Proteus mirabilis TB-617. The test can be described thus: MIC, Proteus mirabilis TB-617*. Type of test: cell-based. The following applies: TB617; Proteus mirabilis TB-617, tobramycin resistant strain; read-out: minimum inhibitory concentration (MIC).

Consider `NC[C@H]1O[C@H](O[C@H]2[C@H](O)[C@@H](O[C@H]3O[C@H](CO)[C@@H](O)[C@H](N)[C@H]3O)[C@H](NCC3(O)CCNC3)C[C@@H]2N)[C@H](O)[C@@H](O)[C@@H]1O` (stereo partly shown) [Test compound (4), 1-N-[(3-hydroxypyrrolidin-3-yl)methyl]kanamycin A], for which the results for the MIC (in test [1]; in the test with Proteus mirabilis TB-617) were 6.25 µg/mL (≈ 10.7 µM) and 3.13 µg/mL (≈ 5.36 µM), respectively.

As for `NC[C@H]1O[C@H](O[C@H]2[C@H](O)[C@@H](O[C@H]3O[C@H](CO)[C@@H](O)[C@H](N)[C@H]3O)[C@H](NCC3(O)CNC3)C[C@@H]2N)[C@H](O)[C@@H](O)[C@@H]1O` [Test compound (3), 1-N-[(3-hydroxyazetidin-3-yl)methyl]kanamycin A], the MIC (in test [1]; in the test with Proteus mirabilis TB-617) was 6.25 µg/mL (≈ 11 µM) each time.

Consider `NC[C@H]1O[C@H](O[C@H]2[C@H](O)[C@@H](O[C@H]3O[C@H](CO)[C@@H](O)[C@H](N)[C@H]3O)[C@H](NCC3(O)CNC3)C[C@@H]2N)[C@H](N)C[C@@H]1O` [Test compound (1), 1-N-[(3-hydroxyazetidin-3-yl)methyl]tobramycin], for which the MIC in test [1] is 6.25 µg/mL (≈ 11.3 µM); in the test with Proteus mirabilis TB-617, 1.56 µg/mL (≈ 2.82 µM).

As to `NC[C@H]1O[C@H](O[C@H]2[C@H](O)[C@@H](O[C@H]3O[C@H](CO)[C@@H](O)[C@H](N)[C@H]3O)[C@H](N)C[C@@H]2N)[C@H](N)C[C@@H]1O` [Test compound (5), tobramycin, reference compound], the MIC worked out at 25 µg/mL (≈ 53.5 µM) in test [1] and 6.25 µg/mL (≈ 13.4 µM) with Proteus mirabilis TB-617.

Consider `NC[C@H]1O[C@H](O[C@H]2[C@H](O)[C@@H](O[C@H]3O[C@H](CO)[C@@H](O)[C@H](N)[C@H]3O)[C@H](NCC3(O)CCNC3)C[C@@H]2N)[C@H](N)C[C@@H]1O` (stereo partly shown) [Test compound (2), 1-N-[(3-hydroxypyrrolidin-3-yl)methyl]tobramycin], for which the MIC in test [1] amounted to 3.13 µg/mL (≈ 5.52 µM); with Proteus mirabilis TB-617, 1.56 µg/mL (≈ 2.75 µM).

The values above are taken from patent US4201774A, “Novel aminoglycoside derivatives” (Shionogi & Co., Ltd., priority 1977, dated 1980).
